Experimental data published in US11730778B2, “Method of increasing the level and production of metabolized phytonutrients in a subject” (ACCESS BUSINESS GROUP INTERNATIONAL LLC, priority 2019, dated 2023).

System: intestinal microbiota (fecal samples) of human subjects
Assay: in-vitro fermentations of fecal samples (intestinal microbiota-representing microarray) with phytonutrient precursor compounds
Format: in vitro ADME
Conditions: in-vitro fermentation; for Phytonutrient Producer Status: conversion of the phytonutrient precursor compound, S1: fecal sample of Subject 1 (S1); for Phytonutrient Producer Status: conversion of the phytonutrient precursor compound, S2: fecal sample of Subject 2 (S2); for Phytonutrient Producer Status: conversion of the phytonutrient precursor compound, S3: fecal sample of Subject 3 (S3); for Phytonutrient Producer Status: conversion of the phytonutrient precursor compound, S4: fecal sample of Subject 4 (S4); for Phytonutrient Producer Status: conversion of the phytonutrient precursor compound, S5: fecal sample of Subject 5 (S5); for Phytonutrient Producer Status: conversion of the phytonutrient precursor compound, S6: fecal sample of Subject 6 (S6); for Phytonutrient Producer Status: conversion of the phytonutrient precursor compound, S7: fecal sample of Subject 7 (S7); for Phytonutrient Producer Status: conversion of the phytonutrient precursor compound, S8: fecal sample of Subject 8 (S8); for Phytonutrient Producer Status: conversion of the phytonutrient precursor compound, S9: fecal sample of Subject 9 (S9); for Phytonutrient Producer Status: conversion of the phytonutrient precursor compound, S10: fecal sample of Subject 10 (S10); for Phytonutrient Producer Status: conversion of the phytonutrient precursor compound, S11: fecal sample of Subject 11 (S11)
Method: The phytonutrient producer status of 11 human subjects (“Subjects 1-11”, or “S1”-“S11”, respectively) was assessed by determining the microbial metabolism of various phytonutrient precursor compounds. […] The metabolism of the phytonutrient precursor compound in each assay was then determined via monitoring conversion (+), partial conversion (±), or no conversion (−) of the phytonutrient precursor compound over time.

OC[C@H]1O[C@@H](Oc2cc3c(O)cc(O)cc3[o+]c2-c2ccc(O)c(O)c2)[C@H](O)[C@@H](O)[C@@H]1O [Cyanidin-3-glucoside]
Phytonutrient Producer Status: conversion of the phytonutrient precursor compound, S1: ± | Phytonutrient Producer Status: conversion of the phytonutrient precursor compound, S2: ± | Phytonutrient Producer Status: conversion of the phytonutrient precursor compound, S3: + | Phytonutrient Producer Status: conversion of the phytonutrient precursor compound, S4: ± | Phytonutrient Producer Status: conversion of the phytonutrient precursor compound, S5: ± | Phytonutrient Producer Status: conversion of the phytonutrient precursor compound, S6: + | Phytonutrient Producer Status: conversion of the phytonutrient precursor compound, S7: + | Phytonutrient Producer Status: conversion of the phytonutrient precursor compound, S8: ± | Phytonutrient Producer Status: conversion of the phytonutrient precursor compound, S9: + | Phytonutrient Producer Status: conversion of the phytonutrient precursor compound, S10: + | Phytonutrient Producer Status: conversion of the phytonutrient precursor compound, S11: +

O=c1oc2c(O)c(O)cc3c(=O)oc4c(O)c(O)cc1c4c23 [Ellagic acid]
Phytonutrient Producer Status: conversion of the phytonutrient precursor compound, S1: ± | Phytonutrient Producer Status: conversion of the phytonutrient precursor compound, S2: ± | Phytonutrient Producer Status: conversion of the phytonutrient precursor compound, S3: ± | Phytonutrient Producer Status: conversion of the phytonutrient precursor compound, S4: − | Phytonutrient Producer Status: conversion of the phytonutrient precursor compound, S5: − | Phytonutrient Producer Status: conversion of the phytonutrient precursor compound, S6: − | Phytonutrient Producer Status: conversion of the phytonutrient precursor compound, S7: − | Phytonutrient Producer Status: conversion of the phytonutrient precursor compound, S8: ± | Phytonutrient Producer Status: conversion of the phytonutrient precursor compound, S9: − | Phytonutrient Producer Status: conversion of the phytonutrient precursor compound, S10: ± | Phytonutrient Producer Status: conversion of the phytonutrient precursor compound, S11: −

Oc1cc(O)c2c(c1)O[C@H](c1cc(O)c(O)c(O)c1)[C@H](O)C2 [Epigallocatechol]
Phytonutrient Producer Status: conversion of the phytonutrient precursor compound, S1: + | Phytonutrient Producer Status: conversion of the phytonutrient precursor compound, S2: + | Phytonutrient Producer Status: conversion of the phytonutrient precursor compound, S3: ± | Phytonutrient Producer Status: conversion of the phytonutrient precursor compound, S4: + | Phytonutrient Producer Status: conversion of the phytonutrient precursor compound, S5: + | Phytonutrient Producer Status: conversion of the phytonutrient precursor compound, S6: + | Phytonutrient Producer Status: conversion of the phytonutrient precursor compound, S7: + | Phytonutrient Producer Status: conversion of the phytonutrient precursor compound, S8: + | Phytonutrient Producer Status: conversion of the phytonutrient precursor compound, S9: + | Phytonutrient Producer Status: conversion of the phytonutrient precursor compound, S10: + | Phytonutrient Producer Status: conversion of the phytonutrient precursor compound, S11: +

COc1ccc([C@@H]2CC(=O)c3c(O)cc(O[C@@H]4O[C@H](CO[C@@H]5O[C@@H](C)[C@H](O)[C@@H](O)[C@H]5O)[C@@H](O)[C@H](O)[C@H]4O)cc3O2)cc1O [Hesperidin]
Phytonutrient Producer Status: conversion of the phytonutrient precursor compound, S1: + | Phytonutrient Producer Status: conversion of the phytonutrient precursor compound, S2: + | Phytonutrient Producer Status: conversion of the phytonutrient precursor compound, S3: + | Phytonutrient Producer Status: conversion of the phytonutrient precursor compound, S4: + | Phytonutrient Producer Status: conversion of the phytonutrient precursor compound, S5: ± | Phytonutrient Producer Status: conversion of the phytonutrient precursor compound, S6: + | Phytonutrient Producer Status: conversion of the phytonutrient precursor compound, S7: + | Phytonutrient Producer Status: conversion of the phytonutrient precursor compound, S8: + | Phytonutrient Producer Status: conversion of the phytonutrient precursor compound, S9: + | Phytonutrient Producer Status: conversion of the phytonutrient precursor compound, S10: + | Phytonutrient Producer Status: conversion of the phytonutrient precursor compound, S11: +

O=c1c(O)c(-c2ccc(O)c(O)c2)oc2cc(O)cc(O)c12 [Quercetin]
Phytonutrient Producer Status: conversion of the phytonutrient precursor compound, S1: − | Phytonutrient Producer Status: conversion of the phytonutrient precursor compound, S2: + | Phytonutrient Producer Status: conversion of the phytonutrient precursor compound, S3: + | Phytonutrient Producer Status: conversion of the phytonutrient precursor compound, S4: + | Phytonutrient Producer Status: conversion of the phytonutrient precursor compound, S5: − | Phytonutrient Producer Status: conversion of the phytonutrient precursor compound, S6: + | Phytonutrient Producer Status: conversion of the phytonutrient precursor compound, S7: + | Phytonutrient Producer Status: conversion of the phytonutrient precursor compound, S8: − | Phytonutrient Producer Status: conversion of the phytonutrient precursor compound, S9: − | Phytonutrient Producer Status: conversion of the phytonutrient precursor compound, S10: + | Phytonutrient Producer Status: conversion of the phytonutrient precursor compound, S11: −

COc1cc(C[C@@H](CO[C@@H]2O[C@H](CO)[C@@H](O)[C@H](O)[C@H]2O)[C@H](CO[C@@H]2O[C@H](CO)[C@@H](O)[C@H](O)[C@H]2O)Cc2ccc(O)c(OC)c2)ccc1O [Secoisolariciresinol diglucoside]
Phytonutrient Producer Status: conversion of the phytonutrient precursor compound, S1: + | Phytonutrient Producer Status: conversion of the phytonutrient precursor compound, S2: + | Phytonutrient Producer Status: conversion of the phytonutrient precursor compound, S3: ± | Phytonutrient Producer Status: conversion of the phytonutrient precursor compound, S4: + | Phytonutrient Producer Status: conversion of the phytonutrient precursor compound, S5: + | Phytonutrient Producer Status: conversion of the phytonutrient precursor compound, S6: ± | Phytonutrient Producer Status: conversion of the phytonutrient precursor compound, S7: ± | Phytonutrient Producer Status: conversion of the phytonutrient precursor compound, S8: ± | Phytonutrient Producer Status: conversion of the phytonutrient precursor compound, S9: + | Phytonutrient Producer Status: conversion of the phytonutrient precursor compound, S10: + | Phytonutrient Producer Status: conversion of the phytonutrient precursor compound, S11: +
